{"source": "ChEMBL document CHEMBL1201862", "about": "“PubChem BioAssay data set” (2004)", "key": {"[1]": {"target": "T1, Alkaline phosphatase, tissue-nonspecific isozyme (Homo sapiens, UniProt P05186)", "T1 sequence (P05186 whole entry)": "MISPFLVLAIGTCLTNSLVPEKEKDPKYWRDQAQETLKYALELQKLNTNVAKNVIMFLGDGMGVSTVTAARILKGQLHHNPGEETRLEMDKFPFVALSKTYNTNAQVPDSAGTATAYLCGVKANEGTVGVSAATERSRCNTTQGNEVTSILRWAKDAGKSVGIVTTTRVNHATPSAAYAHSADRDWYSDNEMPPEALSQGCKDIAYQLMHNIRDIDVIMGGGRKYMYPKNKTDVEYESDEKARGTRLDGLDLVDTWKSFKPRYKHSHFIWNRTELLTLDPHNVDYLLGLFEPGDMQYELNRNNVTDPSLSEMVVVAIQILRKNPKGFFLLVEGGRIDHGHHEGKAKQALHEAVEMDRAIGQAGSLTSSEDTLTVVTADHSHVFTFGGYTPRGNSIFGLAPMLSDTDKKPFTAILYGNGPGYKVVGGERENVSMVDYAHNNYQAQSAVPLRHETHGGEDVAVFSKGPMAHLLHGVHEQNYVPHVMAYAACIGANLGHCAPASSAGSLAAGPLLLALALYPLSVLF"}, "Mucolipin-3": {"target": "T2, Mucolipin-3 (Homo sapiens, UniProt Q8TDD5)", "T2 sequence (Q8TDD5 whole entry)": "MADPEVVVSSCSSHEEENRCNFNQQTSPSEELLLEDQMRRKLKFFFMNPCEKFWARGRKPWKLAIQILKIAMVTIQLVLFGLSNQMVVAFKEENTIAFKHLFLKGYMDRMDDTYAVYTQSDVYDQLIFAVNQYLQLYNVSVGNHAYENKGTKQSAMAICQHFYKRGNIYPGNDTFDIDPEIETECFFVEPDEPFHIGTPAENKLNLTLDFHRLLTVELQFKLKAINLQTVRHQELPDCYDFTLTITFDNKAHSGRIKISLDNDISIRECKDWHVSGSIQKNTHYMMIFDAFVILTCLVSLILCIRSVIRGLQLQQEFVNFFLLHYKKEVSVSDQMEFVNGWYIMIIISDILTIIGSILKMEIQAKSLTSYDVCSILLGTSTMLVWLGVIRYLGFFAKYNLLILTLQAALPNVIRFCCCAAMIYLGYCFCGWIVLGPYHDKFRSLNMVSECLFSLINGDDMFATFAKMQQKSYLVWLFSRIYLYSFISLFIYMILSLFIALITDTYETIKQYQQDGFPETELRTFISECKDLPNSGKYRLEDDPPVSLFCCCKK", "test": "Dose response cell-based high-throughput screening assay for agonists of the transient receptor potential channel ML3 (TRPML3). [Related pubchem assays: 1526, 1424, 1448 ]", "format": "functional"}, "Ion channel NompC": {"target": "Ion channel NompC (Danio rerio, UniProt Q7T1G6)", "sequence (Q7T1G6 whole entry)": "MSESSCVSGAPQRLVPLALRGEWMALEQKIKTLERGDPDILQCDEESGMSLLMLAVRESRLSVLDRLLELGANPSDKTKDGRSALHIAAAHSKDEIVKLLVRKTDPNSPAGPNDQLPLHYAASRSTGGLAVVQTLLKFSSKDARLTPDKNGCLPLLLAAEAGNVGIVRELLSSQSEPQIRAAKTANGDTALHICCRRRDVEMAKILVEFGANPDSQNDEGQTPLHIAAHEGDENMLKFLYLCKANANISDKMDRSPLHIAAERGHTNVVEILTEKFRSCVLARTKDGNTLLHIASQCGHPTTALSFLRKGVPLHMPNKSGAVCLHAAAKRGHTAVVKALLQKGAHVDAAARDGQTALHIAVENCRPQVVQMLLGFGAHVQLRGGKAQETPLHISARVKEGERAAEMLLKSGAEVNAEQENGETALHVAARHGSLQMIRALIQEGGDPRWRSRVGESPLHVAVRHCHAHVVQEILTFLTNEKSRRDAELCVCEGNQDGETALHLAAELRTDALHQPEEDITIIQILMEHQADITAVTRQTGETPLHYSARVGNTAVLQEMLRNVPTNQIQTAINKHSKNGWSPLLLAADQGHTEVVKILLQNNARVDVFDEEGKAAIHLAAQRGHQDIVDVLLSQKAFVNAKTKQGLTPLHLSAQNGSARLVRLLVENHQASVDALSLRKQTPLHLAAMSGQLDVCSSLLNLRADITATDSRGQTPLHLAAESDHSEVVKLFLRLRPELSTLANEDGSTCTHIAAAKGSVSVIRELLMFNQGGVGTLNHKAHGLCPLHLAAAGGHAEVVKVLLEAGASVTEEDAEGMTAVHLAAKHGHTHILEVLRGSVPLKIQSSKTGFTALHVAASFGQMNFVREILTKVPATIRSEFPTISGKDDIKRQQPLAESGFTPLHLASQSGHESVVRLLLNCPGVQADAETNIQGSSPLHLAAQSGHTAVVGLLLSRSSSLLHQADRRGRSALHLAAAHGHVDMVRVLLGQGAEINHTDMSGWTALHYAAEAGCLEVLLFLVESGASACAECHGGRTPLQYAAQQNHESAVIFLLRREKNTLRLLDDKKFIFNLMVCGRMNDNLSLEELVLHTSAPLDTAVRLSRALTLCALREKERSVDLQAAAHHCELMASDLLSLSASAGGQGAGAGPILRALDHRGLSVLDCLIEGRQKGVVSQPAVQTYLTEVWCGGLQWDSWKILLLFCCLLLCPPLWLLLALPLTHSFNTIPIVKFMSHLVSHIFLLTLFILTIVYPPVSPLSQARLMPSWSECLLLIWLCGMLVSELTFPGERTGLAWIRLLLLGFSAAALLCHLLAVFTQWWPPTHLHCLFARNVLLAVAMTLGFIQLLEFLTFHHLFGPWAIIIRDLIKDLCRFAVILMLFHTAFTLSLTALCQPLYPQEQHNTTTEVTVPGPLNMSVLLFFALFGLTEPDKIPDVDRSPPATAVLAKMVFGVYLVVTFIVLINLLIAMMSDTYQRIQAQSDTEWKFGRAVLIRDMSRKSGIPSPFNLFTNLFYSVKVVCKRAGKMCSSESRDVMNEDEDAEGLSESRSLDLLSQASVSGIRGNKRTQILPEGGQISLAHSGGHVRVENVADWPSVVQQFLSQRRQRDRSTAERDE", "test": "Fluorescence counterscreen assay for TRPML3 agonists: dose response cell-based high-throughput screening assay to identify agonists of the transient receptor potential channel N1 (TRPN1). [Related pubchem assays: 1526, 1424, 1448 ]", "format": "functional"}, "NADPH oxidase 1": {"target": "T3, NADPH oxidase 1 (Homo sapiens, UniProt Q9Y5S8)", "T3 sequence (Q9Y5S8 whole entry)": "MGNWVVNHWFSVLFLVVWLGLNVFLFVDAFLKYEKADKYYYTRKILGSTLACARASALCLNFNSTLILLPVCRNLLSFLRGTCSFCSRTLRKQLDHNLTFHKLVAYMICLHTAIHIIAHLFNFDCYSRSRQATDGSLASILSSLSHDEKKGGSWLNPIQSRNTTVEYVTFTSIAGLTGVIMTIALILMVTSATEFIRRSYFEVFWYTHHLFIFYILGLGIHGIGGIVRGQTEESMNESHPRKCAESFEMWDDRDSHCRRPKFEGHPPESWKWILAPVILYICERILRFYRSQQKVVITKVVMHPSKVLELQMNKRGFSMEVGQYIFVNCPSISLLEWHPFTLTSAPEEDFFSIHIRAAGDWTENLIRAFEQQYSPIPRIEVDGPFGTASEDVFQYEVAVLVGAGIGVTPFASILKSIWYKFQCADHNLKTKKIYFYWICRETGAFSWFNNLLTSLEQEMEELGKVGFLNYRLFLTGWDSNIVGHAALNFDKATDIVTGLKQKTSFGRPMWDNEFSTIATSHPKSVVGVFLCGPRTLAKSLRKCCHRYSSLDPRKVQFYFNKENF", "format": "functional, cell-based"}, "[2]": {"target": "T4, Eukaryotic translation initiation factor 2-alpha kinase 3 (Homo sapiens, UniProt Q9NZJ5)", "T4 sequence (Q9NZJ5 whole entry)": "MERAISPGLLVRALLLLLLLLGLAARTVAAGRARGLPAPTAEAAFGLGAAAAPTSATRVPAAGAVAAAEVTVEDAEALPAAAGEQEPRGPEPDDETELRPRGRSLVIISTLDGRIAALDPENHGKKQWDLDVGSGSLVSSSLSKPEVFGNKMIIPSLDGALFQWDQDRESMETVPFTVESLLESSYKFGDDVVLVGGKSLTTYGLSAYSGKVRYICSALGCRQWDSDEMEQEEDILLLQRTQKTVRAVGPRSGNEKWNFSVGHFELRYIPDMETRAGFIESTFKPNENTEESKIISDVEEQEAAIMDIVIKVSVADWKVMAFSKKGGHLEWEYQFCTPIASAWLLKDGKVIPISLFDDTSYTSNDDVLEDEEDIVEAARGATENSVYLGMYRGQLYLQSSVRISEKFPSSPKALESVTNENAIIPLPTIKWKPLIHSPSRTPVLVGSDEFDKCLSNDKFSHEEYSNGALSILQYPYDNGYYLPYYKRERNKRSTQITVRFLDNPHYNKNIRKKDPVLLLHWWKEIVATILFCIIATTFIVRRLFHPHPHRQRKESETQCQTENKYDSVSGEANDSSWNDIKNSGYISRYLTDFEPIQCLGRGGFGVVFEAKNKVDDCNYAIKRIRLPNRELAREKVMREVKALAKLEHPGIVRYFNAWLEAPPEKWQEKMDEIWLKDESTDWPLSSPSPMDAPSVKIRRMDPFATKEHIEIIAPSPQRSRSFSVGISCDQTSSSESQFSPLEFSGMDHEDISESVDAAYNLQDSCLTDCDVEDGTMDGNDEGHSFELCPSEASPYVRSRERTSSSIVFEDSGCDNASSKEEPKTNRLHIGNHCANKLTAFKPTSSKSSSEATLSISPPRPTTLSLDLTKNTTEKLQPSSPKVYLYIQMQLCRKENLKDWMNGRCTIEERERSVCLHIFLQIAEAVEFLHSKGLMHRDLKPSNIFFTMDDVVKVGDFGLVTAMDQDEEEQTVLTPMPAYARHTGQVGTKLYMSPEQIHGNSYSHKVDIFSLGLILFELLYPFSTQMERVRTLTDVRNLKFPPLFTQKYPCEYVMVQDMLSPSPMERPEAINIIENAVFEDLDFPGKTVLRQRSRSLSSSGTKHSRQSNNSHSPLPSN", "test": "Dose response cell-based high-throughput screening assay to measure PERK inhibition. [Related pubchem assays: 1416 ]", "format": "functional"}, "[3]": {"target": "T4, Eukaryotic translation initiation factor 2-alpha kinase 3", "test": "Counterscreen assay for PERK inhibitors: Dose response cell-based high throughput screening assay to measure inhibition of PERK at 6 hours. [Related pubchem assays: 1522, 1416 ]", "format": "functional"}, "[4]": {"test": "A Cell Based Secondary Assay To Explore Cytotoxicity of Compounds that Sensitize Mycobacterium Tuberculosis to Beta-Lactam Antibiotics.", "format": "functional"}, "[5]": {"test": "cytotoxicity in OVCAR8 ovarian cancer cells, dose response, PAX8 project, cell-based, plate reader, dry powder samples (AID 743197)", "format": "functional", "details": "OVCAR-8"}, "[6]": {"test": "NIH:OVCAR-3 ovarian cancer cell cytotoxicity, dose response, PAX8 inhibitor project, plate reader, dry powder samples (AID 743044)", "format": "functional, cell-based"}, "Paired box protein Pax-8": {"target": "Paired box protein Pax-8 (Homo sapiens, UniProt Q06710)", "sequence (Q06710 whole entry)": "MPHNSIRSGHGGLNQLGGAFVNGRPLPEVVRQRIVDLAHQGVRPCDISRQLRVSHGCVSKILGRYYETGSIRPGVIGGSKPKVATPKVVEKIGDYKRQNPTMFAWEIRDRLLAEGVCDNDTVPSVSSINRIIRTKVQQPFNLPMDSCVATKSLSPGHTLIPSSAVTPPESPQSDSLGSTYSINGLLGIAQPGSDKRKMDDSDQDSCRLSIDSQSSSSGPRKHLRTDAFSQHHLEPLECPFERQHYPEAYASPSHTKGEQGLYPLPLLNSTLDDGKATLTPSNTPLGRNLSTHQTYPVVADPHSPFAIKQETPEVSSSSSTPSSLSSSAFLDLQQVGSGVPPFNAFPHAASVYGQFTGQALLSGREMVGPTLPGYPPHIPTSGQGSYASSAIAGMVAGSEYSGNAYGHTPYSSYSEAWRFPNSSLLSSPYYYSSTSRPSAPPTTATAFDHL", "test": "inhibitors of PAX8-driven TPO luciferase reporter, dose response, RMG-I cells, cherry-pick (AID 687027);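 further: luciferase reporter driven by Pax8 target thyroperoxidase promoter measured by SteadyGlo luminescence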", "format": "functional, cell-based"}, "[7]": {"test": "P. falciparum Dd2 growth inhibitors, dose response, SYBR Green, cherry-picked samples (AID 1159567)", "format": "functional, cell-based"}, "[8]": {"test": "HepG2 cell cytotoxicity, dose response, cytotoxicity control, cherry-picked samples (AID 1159577)", "format": "functional, cell-based"}, "[9]": {"test": "P. falciparum Dd2 growth inhibitors, dose response, SYBR Green, dry powder samples (AID 1159566);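 further: potency for growth inhibition with lower SYBR green DNA signal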", "format": "functional, cell-based"}, "[10]": {"test": "P. falciparum ATP4 D1247Y mutant growth inhibitors, dose response, NITD609-resistant line, SYBR Green, dry powder (AID 1159571);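 further: parasites synchronized at ring stage by sorbitol before testing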", "format": "functional, cell-based"}, "[11]": {"test": "P. falciparum 3D7-ScDHODH growth inhibitors, dose response, SYBR Green, dry powder samples (AID 1159570);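 further: parasite growth measured after 72 hours of compound exposure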", "format": "functional, cell-based"}, "[12]": {"test": "HepG2 cell cytotoxicity, dose response, cytotoxicity control, plate reader, dry powder samples (AID 1159569);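 further: inhibitor potency with signal falling toward the positive control level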", "format": "functional, cell-based"}}, "note": "The source made the active and inactive calls.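 Wherever IC50 is given: Cell-based assay with luminescence read-out, IC50 derived from inhibitor dose-response curves; intracellular ROS from endogenous NOX1 in intact HT29 colon cancer cells; potency of inhibitors that lower the ROS luminescence signal.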", "data": [{"compound": "COc1ccc(-c2nc3ccc(C)cn3c2NCc2ccc3c(c2)OCO3)cc1", "values": [{"measurement": "EC50", "setting": "[1]", "result": "> 100 µM (not active)"}]}, {"compound": "CCOC(=O)c1c(NC(=O)COc2ncnc3ccccc23)sc(C)c1C", "values": [{"measurement": "EC50", "setting": "[1]", "result": "> 100 µM (not active)"}]}, {"compound": "CCNC(=S)N(Cc1cccs1)Cc1cc2cc(OCC)ccc2nc1O", "values": [{"measurement": "EC50", "setting": "Mucolipin-3", "result": "> 29.9 µM (not active)"}, {"measurement": "EC50", "setting": "Ion channel NompC", "result": "> 29.9 µM (not active)"}]}, {"compound": "C=C(NNc1c(Cl)c(Cl)nc(C(=O)O)c1Cl)c1ccc(O)cc1", "values": [{"measurement": "IC50", "setting": "NADPH oxidase 1", "result": "4.45 µM (active)"}]}, {"compound": "CC(=O)Nc1ccc(NC(=O)Nc2cc(C)cc(C)c2)cc1", "values": [{"measurement": "EC50", "setting": "[2]", "result": "> 55.7 µM (not active)"}, {"measurement": "EC50", "setting": "[3]", "result": "> 55.7 µM (not active)"}]}, {"compound": "Nc1c(Cl)cc(-c2csc(N3CCCC3c3nc4cc(Cl)c(N5CCCCC5)cc4n3CCCO)n2)cc1Cl", "note": "(stereo not given)", "values": [{"measurement": "CC50", "setting": "[4]", "result": "> 40 µM (active)"}]}, {"compound": "COc1ccccc1C#Cc1ccc2c(c1)O[C@@H](CN(C)Cc1cncnc1)[C@H](C)CN([C@H](C)CO)S2(=O)=O", "values": [{"measurement": "AC50", "setting": "[5]", "result": "29 µM (active)"}, {"measurement": "AC50", "setting": "[6]", "result": "32.6 µM (active)"}, {"measurement": "AC50", "setting": "Paired box protein Pax-8", "result": "2.16 µM (active)"}]}, {"compound": "C/C=C/c1ccc([C@H]2[C@H](CO)N(c3nc(CC)cs3)[C@H]2CNC(C)C)cc1", "values": [{"measurement": "AC50", "setting": "[7]", "result": "0.829 µM (active)"}, {"measurement": "AC50", "setting": "[8]", "result": "20 µM (active)"}]}, {"compound": "C[C@@H]1CN([C@@H](C)CO)C(=O)c2cccc(NC(=O)c3ccc(-c4nccs4)cc3)c2O[C@@H]1CN(C)C(=O)Nc1cccc2ccccc12", "values": [{"measurement": "AC50", "setting": "[9]", "result": "0.334 µM (active)"}, {"measurement": "AC50", "setting": "[10]", "result": "0.733 µM (active)"}, {"measurement": "AC50", "setting": "[11]", "result": "0.956 µM (active)"}, {"measurement": "AC50", "setting": "[7]", "result": "2.9 µM (active)"}, {"measurement": "AC50", "setting": "[8]", "result": "> 39 µM (inactive)"}, {"measurement": "AC50", "setting": "[12]", "result": "53.3 µM (active)"}]}, {"compound": "Oc1ccc(-c2nc(-c3ccccc3)c(-c3ccccc3)[nH]2)cc1", "values": [{"measurement": "IC50", "setting": "NADPH oxidase 1", "result": "> 17 µM (not active)"}]}]}
